The structures appear in SMILES notation. Entries after “also recorded” stand apart in the source; their conditions may differ.

One assay has as its system auditory network. Kind of assay: Association between human milk HMOs and brain functional network connection strength (rsfMRI), auditory network. The following applies: A-tetra+ group; infants 0-20 months; human milk HMO level; quantile regression of 25th, 50th, 75th percentiles of CS; across all quantiles. In kind it is in vivo, typically developing infants (human). The method, then: (§1) In this study, we leveraged the UNC/UMN Baby Connectome Project (BCP) published in Neuroimage 2019: Vol 185: 891-905, aiming to longitudinally characterize early brain development, where typically developing children from 0-5 years of age were enrolled, longitudinal resting functional MR imaging (rsfMRI) was administered at each visit. The BCP study was further supplemented by collecting breast milk samples from the mothers whose children were breast-fed at the time of study visit, to allow the determination of potential associations between HMOs and early brain functional development using rsfMRI.
(§2) 153 rsfMRI scans from 91 typically developing infants (0-20 months old) were obtained. Human milk (HM) samples were obtained from the mothers of the participants at each imaging visit and analyzed for HMOs. Brain functional network connection strengths (CS), which have been implicated to reflect brain functional maturation during early brain development, were obtained for the visual, default mode (DMN), sensorimotor, and auditory networks. Age effects for CS and HMOs were removed. Multivariate quantile regression of 25th, 50th, and 75th percentiles of CS with mixed effect was used to examine associations between HMOs and CS for all infants, and stratified by infants who received HM with detectable and undetectable A-tetra (A-tetra+and A-tetra−). […]

Another assay concerns visual network. Kind of assay: Association between human milk HMOs and brain functional network connection strength (rsfMRI), visual network. Type of assay: in vivo, typically developing infants (human). The following applies: A-tetra+ group; infants 0-20 months; human milk HMO level; quantile regression of 25th, 50th, 75th percentiles of CS; across all quantiles. The method, then:
as §1, §2

Regarding `CC(=O)N[C@H]1[C@H]([C@H](O)[C@H](O)CO)O[C@@](OC[C@H]2O[C@@H](O[C@H]3[C@H](O)[C@@H](O)[C@H](O)O[C@@H]3CO)[C@H](O)[C@@H](O)[C@H]2O)(C(=O)O)C[C@@H]1O` [6′-SL, 6′-sialyllactose], the “association between 6′-SL and auditory function (auditory resting functional networks, connection strength)” value with auditory network was “positive associations; also recorded: significant positive association”. In addition, the “association between 6′-SL and visual function (vision resting functional networks, connection strength)” value in the assay on visual network is “positive associations; also recorded: significant positive association”.

For the origin of these results see patent US20260150874A1, “HUMAN MILK OLIGOSACCHARIDES” (SOCIETE DES PRODUITS NESTLE S.A., priority 2021, published 2026).
